Test results reported in patent US20140093935A1, “CHARGED TRIPLET-STATE QUENCHERS FOR MITIGATION OF PHOTO-INDUCED DAMAGE” (Pacific Biosciences of California, Inc., priority 2012, published 2014).

Assays:
[1] = test system: fluorophore blinking; assay: Sequencing-by-synthesis assay, interpulse duration / very short dark periods (blinkiness); type: biochemical; conditions: 3 μM and 5 μM of compound compared with 1 mM of the charged nitrophenyl photoprotective moiety; FIG. 7
Procedure: One measure of photoprotective benefit is monitoring “blinkiness” of dyes in a reaction mixture. For example, in a reaction in which dye-labeled reactants are being observed as they cyclically interact with an unlabeled reactant, the time between interaction events is a length of time during which no dye is present, or a “dark” period. Given certain reaction parameters, e.g., diffusion rates and concentration of the labeled reactant, a distribution of dark periods is measured that centers around a value that is an average time between interaction events. This distribution curve can be perturbed by dye blinking since such blinking introduces a very brief dark period during an interaction event. These blinking-induced dark periods introduce an aberrant peak in the dark period distribution resulting in a peak that is outside of the normal distribution and representing dark periods that are too short to be explained by the reaction parameters. Blinkiness is increased when a dye is excited to the triplet state and there is insufficient photo-induced damage mitigation to quickly return it to a non-triplet state. […]
Experiments were conducted using a single-molecule, real-time (SMRT®) sequencing instrument. […] Sequencing was initiated and reactions were monitored in real time. The fluorescence emissions were recorded, processed, and analyzed. […]

[2] = test system: phi29 polymerase enzyme; assay: Sequencing-by-synthesis assay, polymerase survival as a function of number of bases sequenced; type: biochemical
Source text: In various embodiments, the amount of photo-induced damage that occurs in a reaction mixture of the invention is detectably less than the amount of photo-induced damage that occurs in the absence of a photoprotective additive according to Formula I or Formula II. Photo-induced damage can be measured in different ways, depending on the particular analytical reaction. One way is by monitoring blinkiness of a fluorescent dye in the reaction, as further explained above. In other embodiments, the amount of photo-induced damage is measured as a length of time a reaction can proceed, e.g., the survival time for an enzyme catalyzing a reaction. For example, in a nucleic acid sequencing-by-synthesis reaction, a proxy for the level of photo-induced damage can be the length of the nascent strand synthesized and/or the length of the sequencing read generated. […]
Experiments were conducted using a single-molecule, real-time (SMRT®) sequencing instrument. […] Sequencing was initiated and reactions were monitored in real time. The fluorescence emissions were recorded, processed, and analyzed.
Further analysis of the fluorescent emissions included measurement of polymerase enzyme survival in the reaction as a function of number of bases sequenced. Another measure of photo-induced damage was the average read length produced in the sequencing reaction.

O=C(CNc1cccc([N+](=O)[O-])c1)NCCCCCCOP(=O)(O)OP(=O)(O)OP(=O)(O)OP(=O)(O)OP(=O)(O)O [TSQ001-6C-5P]
reducing the incidence of very short dark periods (proxy for blinkiness) [1]: as effective
increasing survival of a polymerase enzyme ([2]; 1.5, 3, and 5 μM of compound compared with 1 mM of the charged nitrophenyl photoprotective moiety, FIG. 8): more effective
polymerase survival in a sequencing-by-synthesis reaction is increased ([2]; as compared to the photoprotective moiety alone, by various measures (data not shown)): 15-25%
